Experimental data as given in ChEMBL document CHEMBL5465560, “Selectivity Literature for EUbOPEN Chemogenomic Library” (2024).

Columns and labels:
[1] = target: Serine/threonine-protein kinase 26 (Homo sapiens, UniProt Q9P289); details: at 10 µM
[2] = target: T1, Serine/threonine-protein kinase ULK1 (Homo sapiens) (UniProt O75385); assay: Selectivity interaction (ActivX KiNativ screen (kinase selectivity in THP-1 cell lysates)) EUB0000639a ULK1; format: subcellular; details: lysate, at 0.01 µM
T1 sequence (whole entry): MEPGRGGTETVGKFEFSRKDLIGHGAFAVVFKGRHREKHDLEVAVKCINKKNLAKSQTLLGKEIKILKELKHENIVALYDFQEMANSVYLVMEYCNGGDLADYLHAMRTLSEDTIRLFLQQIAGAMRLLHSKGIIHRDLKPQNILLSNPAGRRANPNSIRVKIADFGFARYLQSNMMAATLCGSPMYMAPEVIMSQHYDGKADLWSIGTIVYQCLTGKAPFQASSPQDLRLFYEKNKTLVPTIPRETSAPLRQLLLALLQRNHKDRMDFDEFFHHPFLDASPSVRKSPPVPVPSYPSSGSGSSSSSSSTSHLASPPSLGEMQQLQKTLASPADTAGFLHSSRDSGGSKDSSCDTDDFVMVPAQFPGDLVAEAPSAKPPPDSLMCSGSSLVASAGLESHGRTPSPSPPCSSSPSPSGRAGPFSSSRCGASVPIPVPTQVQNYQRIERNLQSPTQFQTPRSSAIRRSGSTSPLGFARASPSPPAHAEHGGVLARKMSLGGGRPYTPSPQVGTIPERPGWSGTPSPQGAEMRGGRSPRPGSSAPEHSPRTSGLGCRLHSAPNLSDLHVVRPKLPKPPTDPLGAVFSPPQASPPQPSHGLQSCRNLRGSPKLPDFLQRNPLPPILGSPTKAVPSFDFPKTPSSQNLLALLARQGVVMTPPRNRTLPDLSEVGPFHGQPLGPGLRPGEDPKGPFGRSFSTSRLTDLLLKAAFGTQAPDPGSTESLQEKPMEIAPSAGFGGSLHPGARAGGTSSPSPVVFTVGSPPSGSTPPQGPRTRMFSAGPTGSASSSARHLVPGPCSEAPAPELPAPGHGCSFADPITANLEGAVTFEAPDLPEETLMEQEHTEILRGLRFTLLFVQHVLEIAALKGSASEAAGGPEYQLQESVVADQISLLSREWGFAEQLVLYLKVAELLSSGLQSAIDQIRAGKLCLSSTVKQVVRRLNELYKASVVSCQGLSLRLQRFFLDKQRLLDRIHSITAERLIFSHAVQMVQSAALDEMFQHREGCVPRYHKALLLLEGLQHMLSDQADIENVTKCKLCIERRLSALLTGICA

[3] = target: Mitogen-activated protein kinase 4 (Homo sapiens) (UniProt P31152); assay: Selectivity interaction (KinomeScan (DiscoverX)) EUB0000092b MAPK4; details: at 10 µM
[4] = target: T2, Tyrosine-protein kinase JAK3 (Homo sapiens) (UniProt P52333); assay: Selectivity interaction (KinomeScan (DiscoverX)) EUB0001619a JAK3; details: at 1 µM
T2 sequence (whole entry): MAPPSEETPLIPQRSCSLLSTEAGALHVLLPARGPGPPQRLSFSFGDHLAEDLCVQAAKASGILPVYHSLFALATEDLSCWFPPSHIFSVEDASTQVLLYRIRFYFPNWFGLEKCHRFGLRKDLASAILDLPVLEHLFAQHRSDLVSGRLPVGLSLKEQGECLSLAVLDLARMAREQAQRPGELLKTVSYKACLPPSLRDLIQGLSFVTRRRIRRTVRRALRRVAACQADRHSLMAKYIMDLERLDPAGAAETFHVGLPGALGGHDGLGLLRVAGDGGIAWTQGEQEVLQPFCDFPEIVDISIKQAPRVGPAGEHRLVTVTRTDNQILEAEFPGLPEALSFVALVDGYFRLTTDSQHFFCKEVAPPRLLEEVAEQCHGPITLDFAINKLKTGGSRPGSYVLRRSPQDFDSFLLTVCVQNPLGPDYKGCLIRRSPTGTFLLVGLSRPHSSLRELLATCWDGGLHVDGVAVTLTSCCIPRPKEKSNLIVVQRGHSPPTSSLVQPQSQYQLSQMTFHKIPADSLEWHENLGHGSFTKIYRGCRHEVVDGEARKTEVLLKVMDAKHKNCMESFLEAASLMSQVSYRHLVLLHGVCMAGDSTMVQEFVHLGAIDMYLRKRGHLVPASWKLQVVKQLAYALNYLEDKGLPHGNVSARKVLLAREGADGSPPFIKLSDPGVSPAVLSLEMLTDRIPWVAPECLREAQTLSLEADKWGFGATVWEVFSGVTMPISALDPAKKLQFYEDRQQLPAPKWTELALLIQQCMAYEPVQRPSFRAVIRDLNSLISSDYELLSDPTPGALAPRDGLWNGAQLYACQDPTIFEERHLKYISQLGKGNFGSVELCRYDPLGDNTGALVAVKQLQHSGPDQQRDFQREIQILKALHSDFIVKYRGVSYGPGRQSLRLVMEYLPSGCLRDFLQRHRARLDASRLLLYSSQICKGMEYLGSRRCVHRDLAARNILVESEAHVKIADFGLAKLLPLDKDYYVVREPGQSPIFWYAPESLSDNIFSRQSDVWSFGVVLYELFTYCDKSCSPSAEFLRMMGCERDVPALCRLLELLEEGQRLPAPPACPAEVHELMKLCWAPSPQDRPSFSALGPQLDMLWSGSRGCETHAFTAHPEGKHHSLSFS

[5] = target: Protein kinase C gamma type (Homo sapiens) (UniProt P05129); assay: Selectivity interaction (Kinase panel (Z-LYTE Assay)) EUB0001632a PRKCG; details: at 10 µM
[6] = target: Phosphatidylinositol 4-phosphate 3-kinase C2 domain-containing subunit alpha (Homo sapiens) (UniProt O00443); assay: Selectivity interaction (Adapta Assay) EUB0001632a PIK3C2A; details: at 10 µM
Chain of Phosphatidylinositol 4-phosphate 3-kinase C2 domain-containing subunit alpha (Homo sapiens) (O00443 whole entry, the tested form may be a part): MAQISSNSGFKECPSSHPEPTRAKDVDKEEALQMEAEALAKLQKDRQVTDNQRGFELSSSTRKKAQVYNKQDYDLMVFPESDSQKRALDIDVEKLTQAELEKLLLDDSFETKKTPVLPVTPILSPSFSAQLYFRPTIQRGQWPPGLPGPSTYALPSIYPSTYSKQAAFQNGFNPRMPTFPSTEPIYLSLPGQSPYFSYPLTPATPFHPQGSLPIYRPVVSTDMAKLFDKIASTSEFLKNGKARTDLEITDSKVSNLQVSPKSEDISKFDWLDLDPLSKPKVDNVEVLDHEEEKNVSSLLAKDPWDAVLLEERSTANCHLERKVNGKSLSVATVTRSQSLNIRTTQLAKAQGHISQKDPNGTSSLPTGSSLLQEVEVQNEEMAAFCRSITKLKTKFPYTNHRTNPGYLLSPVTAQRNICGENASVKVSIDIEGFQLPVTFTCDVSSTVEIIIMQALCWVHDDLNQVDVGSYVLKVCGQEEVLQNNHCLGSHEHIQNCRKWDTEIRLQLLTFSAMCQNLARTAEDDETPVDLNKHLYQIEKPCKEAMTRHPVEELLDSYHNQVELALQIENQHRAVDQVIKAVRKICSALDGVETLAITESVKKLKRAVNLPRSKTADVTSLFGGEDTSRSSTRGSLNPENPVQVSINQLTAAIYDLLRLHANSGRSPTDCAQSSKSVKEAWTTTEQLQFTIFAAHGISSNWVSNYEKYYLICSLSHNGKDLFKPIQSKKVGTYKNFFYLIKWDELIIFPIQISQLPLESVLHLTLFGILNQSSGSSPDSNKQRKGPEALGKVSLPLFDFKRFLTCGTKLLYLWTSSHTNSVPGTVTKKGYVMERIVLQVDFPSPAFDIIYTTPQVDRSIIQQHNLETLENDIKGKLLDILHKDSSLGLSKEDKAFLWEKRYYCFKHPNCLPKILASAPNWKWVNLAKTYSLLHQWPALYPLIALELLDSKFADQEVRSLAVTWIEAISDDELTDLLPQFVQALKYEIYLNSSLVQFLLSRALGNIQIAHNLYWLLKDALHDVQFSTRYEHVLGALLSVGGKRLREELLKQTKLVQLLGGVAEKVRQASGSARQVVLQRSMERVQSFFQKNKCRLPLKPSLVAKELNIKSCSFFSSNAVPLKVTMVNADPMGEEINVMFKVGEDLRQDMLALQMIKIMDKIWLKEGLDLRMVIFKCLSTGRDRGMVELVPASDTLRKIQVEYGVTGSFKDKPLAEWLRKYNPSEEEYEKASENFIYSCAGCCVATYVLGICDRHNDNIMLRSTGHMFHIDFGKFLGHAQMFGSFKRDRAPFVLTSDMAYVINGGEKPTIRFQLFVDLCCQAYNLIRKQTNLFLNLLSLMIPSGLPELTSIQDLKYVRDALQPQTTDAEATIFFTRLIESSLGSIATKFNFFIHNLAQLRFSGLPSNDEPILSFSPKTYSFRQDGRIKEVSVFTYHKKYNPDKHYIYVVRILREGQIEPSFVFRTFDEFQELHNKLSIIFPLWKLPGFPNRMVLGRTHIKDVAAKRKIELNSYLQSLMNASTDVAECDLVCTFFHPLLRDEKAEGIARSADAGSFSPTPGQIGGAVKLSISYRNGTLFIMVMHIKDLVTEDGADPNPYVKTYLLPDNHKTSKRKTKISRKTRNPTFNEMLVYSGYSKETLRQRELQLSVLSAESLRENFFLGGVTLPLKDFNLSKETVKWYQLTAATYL

Chain of Mitogen-activated protein kinase 4 (Homo sapiens) (P31152 whole entry): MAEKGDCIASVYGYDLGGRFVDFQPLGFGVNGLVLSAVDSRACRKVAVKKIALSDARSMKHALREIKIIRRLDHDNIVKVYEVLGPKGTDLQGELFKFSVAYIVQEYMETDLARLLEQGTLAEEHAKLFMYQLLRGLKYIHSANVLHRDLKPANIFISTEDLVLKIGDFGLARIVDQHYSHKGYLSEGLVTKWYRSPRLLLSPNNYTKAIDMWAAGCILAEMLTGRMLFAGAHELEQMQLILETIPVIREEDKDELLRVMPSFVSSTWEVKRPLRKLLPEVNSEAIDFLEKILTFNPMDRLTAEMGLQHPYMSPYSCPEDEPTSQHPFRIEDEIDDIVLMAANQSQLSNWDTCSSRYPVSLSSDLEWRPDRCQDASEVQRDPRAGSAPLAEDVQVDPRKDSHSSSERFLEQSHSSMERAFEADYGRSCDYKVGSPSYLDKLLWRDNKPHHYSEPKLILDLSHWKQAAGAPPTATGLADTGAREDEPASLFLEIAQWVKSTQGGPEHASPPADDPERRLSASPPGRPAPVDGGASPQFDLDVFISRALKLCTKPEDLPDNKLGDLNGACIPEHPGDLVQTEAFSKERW
Chain of Serine/threonine-protein kinase 26 (Q9P289 2-416 limits assumed): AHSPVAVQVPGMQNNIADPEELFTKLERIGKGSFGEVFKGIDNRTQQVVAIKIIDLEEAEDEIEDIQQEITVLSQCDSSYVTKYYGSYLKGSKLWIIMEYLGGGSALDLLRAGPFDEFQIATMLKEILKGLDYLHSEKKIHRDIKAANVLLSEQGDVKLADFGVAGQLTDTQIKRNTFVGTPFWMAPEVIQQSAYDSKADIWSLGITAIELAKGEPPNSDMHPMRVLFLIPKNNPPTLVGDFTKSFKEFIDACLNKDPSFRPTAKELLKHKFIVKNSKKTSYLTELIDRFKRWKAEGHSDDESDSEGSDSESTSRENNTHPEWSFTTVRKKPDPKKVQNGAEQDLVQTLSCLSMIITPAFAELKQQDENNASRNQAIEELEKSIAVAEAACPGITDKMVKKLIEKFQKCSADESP

`CCN(CC)CCCCNc1ncc2cc(-c3cc(OC)cc(OC)c3)c(NC(=O)NC(C)(C)C)nc2n1` gave a % of control [1] of 100%.
`CC[C@@H]1[C@H](F)C(=O)N[C@@H]1COc1nccc2cc(C(N)=O)c(OC)cc12` [ZIMLOVISERTIB] showed a % of inhibition [2] of -5.9%.
Molecule `CCC(=O)N1CCN(c2ccc(-n3c(=O)ccc4cnc5ccc(-c6cnc7ccccc7c6)cc5c43)cc2C(F)(F)F)CC1` has a % of control [3] of 80%.
Work on `N#Cc1cccc(-c2c[nH]c3ncnc(N4CCOCC4)c23)c1` yielded a % of control [4] of 2.7%.
With `Cn1cc(-n2cnc3c(NCc4nc5cc(Cl)c(Cl)cc5[nH]4)nc(N4CCOCC4)nc32)cn1` the % of control [5] was 11.7% and the % of inhibition [6] was 5.89%.
